Experimental data published in patent publication US10563263B2, “Genetic polymorphisms associated with statin response and cardiovascular diseases, methods of detection and uses thereof” (CELERA CORPORATION, priority 2010, dated 2020).

Tested on: CVD (CHD or stroke)
Assay: CARE: SNP by pravastatin treatment interaction, logistic regression (synergy index), CVD endpoint
Format: in vivo, human
Settings: CARE
Description: CARE was a secondary prevention trial and WOSCOPS was a primary prevention trial.
The CHD endpoint was defined in the analyses herein of CARE as a composite endpoint of fatal CHD, definite non-fatal MI, or revascularization, and was defined in the analyses herein of WOSCOPS as a composite endpoint of death from CHD, nonfatal MI, or revascularization. In both the CARE and WOSCOPS analyses herein, the CVD endpoint was defined as a composite endpoint of CHD or stroke. […] Revascularization, which can include percutaneous transluminal coronary angioplasty (PTCA), stent placement, and coronary artery bypass graft (CABG), are medical interventions that indicate the presence of CHD.
Cohort and case-only study designs were used to identify SNPs associated with response to statin treatment.
For each SNP, a logistic regression model having treatment status as the dependent variable and SNP as the independent predictor variable was performed, with terms for age, sex and race included in the model as covariates. The anti-log of the regression coefficient corresponding to the SNP is an estimate of the synergy index (SI) (Davis et al., “Imputing gene-treatment interactions when the genotype distribution is unknown using case-only and putative placebo analyses-a new method for the Genetics of Hypertension Associated Treatment (GenHAT) study”, Statistics in Medicine 23: (2004), pages 2413-2427). The SI is a ratio of odds ratios: for example in the CARE and WOSCOPS studies, the SI represents the factor by which the odds-ratio of statin treatment, compared with placebo, among major homozygous individuals is multiplied by in order to obtain the odds-ratio of treatment vs. placebo among heterozygous individuals; and multiplied by a second time to obtain the odds-ratio of treatment vs. placebo in minor homozygous individuals. […] In a randomized clinical trial, genotype and treatment are independent by design.

Structure (SMILES): CC[C@H](C)C(=O)O[C@H]1C[C@H](O)C=C2C=C[C@H](C)[C@H](CC[C@@H](O)C[C@@H](O)CC(=O)O)[C@H]21 [Pravastatin, pravastatin]
- OR (synergy index, SNP x pravastatin treatment interaction) (rs152707 allele A, model ADD, Imputed): 0.684
- OR (synergy index, SNP x pravastatin treatment interaction) (rs152712 allele C, model ADD, Genotyped): 0.6783
- OR (SNP x pravastatin interaction) (rs208026 allele A, DOM model, Genotyped): 1.457
- OR (SNP x pravastatin interaction) (rs208029 allele T, DOM model, Imputed): 1.41
- OR (SNP x pravastatin interaction) (rs208757 allele G, DOM model, Imputed): 1.423
- OR (SNP x pravastatin interaction) (rs229775 allele A, REC model, Imputed): 0.3933
- OR (SNP x pravastatin interaction) (rs229815 allele T, REC model, Imputed): 0.4053
- OR (SNP x pravastatin interaction) (rs229829 allele C, REC model, Imputed): 0.5066
- OR (SNP x pravastatin interaction) (rs229831 allele A, REC model, Imputed): 0.3945
- OR (SNP x pravastatin interaction) (rs238252 allele G, ADD model, Imputed): 1.66
- OR (SNP x pravastatin interaction) (rs238252 allele G, DOM model, Imputed): 1.848
- OR (synergy index, SNP x pravastatin treatment interaction) (rs1444741 allele A, model DOM, Imputed): 0.6595
- OR (synergy index, SNP x pravastatin treatment interaction) (rs1449916 allele C, model DOM, Imputed): 0.5892
- OR (synergy index, SNP x pravastatin treatment interaction) (rs1459523 allele A, model ADD, Imputed): 1.366
- OR (synergy index, SNP x pravastatin treatment interaction) (rs1476714 allele A, model DOM, Imputed): 0.6618
- OR (synergy index, SNP x pravastatin treatment interaction) (rs1486723 allele C, model REC, Imputed): 0.4458
- OR (synergy index, SNP x pravastatin treatment interaction) (rs1495375 allele A, model ADD, Imputed): 0.741
- OR (synergy index, SNP x pravastatin treatment interaction) (rs1495375 allele A, model DOM, Imputed): 0.6085
- OR (synergy index, SNP x pravastatin treatment interaction) (rs1495381 allele T, model REC, Imputed): 1.776
- OR (synergy index, SNP x pravastatin treatment interaction) (rs1498061 allele C, model ADD, Imputed): 0.4939
- OR (synergy index, SNP x pravastatin treatment interaction) (rs1498992 allele G, model DOM, Imputed): 0.5981
- OR (synergy index, SNP x pravastatin treatment interaction) (rs1499001 allele T, model DOM, Imputed): 0.5667
- OR (synergy index, SNP x pravastatin treatment interaction) (rs1512988 allele A, model ADD, Imputed): 0.7274
- OR (synergy index, SNP x pravastatin treatment interaction) (rs1512988 allele A, model DOM, Imputed): 0.6077
- OR (synergy index, SNP x pravastatin treatment interaction) (rs1512989 allele T, model ADD, Imputed): 0.7274
- OR (synergy index, SNP x pravastatin treatment interaction) (rs1512989 allele T, model DOM, Imputed): 0.6077
- OR (synergy index, SNP x pravastatin treatment interaction) (rs1512991 allele T, model ADD, Imputed): 0.7286
- OR (synergy index, SNP x pravastatin treatment interaction) (rs1512991 allele T, model DOM, Imputed): 0.6184
- OR (synergy index, SNP x pravastatin treatment interaction) (rs1524306 allele C, model ADD, Imputed): 1.366
- OR (synergy index, SNP x pravastatin treatment interaction) (rs1524310 allele G, model ADD, Imputed): 1.366
- OR (synergy index, SNP x pravastatin treatment interaction) (rs1527059 allele A, model DOM, Imputed): 0.5689
- OR (synergy index, SNP x pravastatin treatment interaction) (rs1535866 allele G, model DOM, Imputed): 1.391
- OR (synergy index, SNP x pravastatin treatment interaction) (rs1567740 allele T, model ADD, Imputed): 0.7274
- OR (synergy index, SNP x pravastatin treatment interaction) (rs1567740 allele T, model DOM, Imputed): 0.6032
- OR (synergy index, SNP x pravastatin treatment interaction) (rs1572573 allele A, model DOM, Imputed): 1.748
- OR (synergy index, SNP x pravastatin treatment interaction) (rs1577497 allele C, model REC, Imputed): 0.4912
- OR (synergy index, SNP x pravastatin treatment interaction) (rs1581514 allele T, model ADD, Imputed): 1.353
- OR (synergy index, SNP x pravastatin treatment interaction) (rs1582321 allele T, model DOM, Imputed): 0.5814
- OR (synergy index, SNP x pravastatin treatment interaction) (rs1582322 allele A, model DOM, Imputed): 0.5859
- OR (synergy index, SNP x pravastatin treatment interaction) (rs1582323 allele A, model DOM, Imputed): 0.5825
- OR (synergy index, SNP x pravastatin treatment interaction) (rs1592485 allele C, model DOM, Imputed): 0.5835
- OR (synergy index, SNP x pravastatin treatment interaction) (rs1600954 allele T, model ADD, Imputed): 1.379
- OR (synergy index, SNP x pravastatin treatment interaction) (rs1705261 allele A, model REC, Imputed): 1.775
- OR (synergy index, SNP x pravastatin treatment interaction) (rs1832222 allele G, model DOM, Imputed): 1.612
- OR (synergy index, SNP x pravastatin treatment interaction) (rs1861327 allele G, model DOM, Imputed): 0.5814
- OR (synergy index, SNP x pravastatin treatment interaction) (rs1868581 allele G, model ADD, Imputed): 1.366
- OR (synergy index, SNP x pravastatin treatment interaction) (rs1874313 allele A, model ADD, Imputed): 0.7419
- OR (synergy index, SNP x pravastatin treatment interaction) (rs1874313 allele A, model DOM, Imputed): 0.615
- OR (SNP x pravastatin interaction) (rs1876409 allele C, DOM model, Imputed): 0.6151
- OR (SNP x pravastatin interaction) (rs1913201 allele G, ADD model, Imputed): 0.7218
- OR (SNP x pravastatin interaction) (rs1913201 allele G, DOM model, Imputed): 0.6464
- OR (SNP x pravastatin interaction) (rs1936871 allele G, DOM model, Genotyped): 0.571
- OR (SNP x pravastatin interaction) (rs1961157 allele T, REC model, Imputed): 0.6068
- OR (SNP x pravastatin interaction) (rs1987179 allele T, ADD model, Imputed): 0.7138
- OR (SNP x pravastatin interaction) (rs1987179 allele T, DOM model, Imputed): 0.6634
- OR (SNP x pravastatin interaction) (rs1990023 allele T, DOM model, Imputed): 0.6462
- OR (SNP x pravastatin interaction) (rs1995025 allele C, DOM model, Imputed): 1.608
- OR (SNP x pravastatin interaction) (rs2016194 allele G, DOM model, Imputed): 0.6626
- OR (SNP x pravastatin interaction) (rs2023651 allele T, ADD model, Imputed): 0.682
- OR (SNP x pravastatin interaction) (rs2024902 allele A, ADD model, Imputed): 1.998
- OR (SNP x pravastatin interaction) (rs2024902 allele A, DOM model, Imputed): 2.076
- OR (SNP x pravastatin interaction) (rs2025107 allele A, DOM model, Imputed): 1.856
- OR (SNP x pravastatin interaction) (rs2025108 allele T, DOM model, Imputed): 1.856
- OR (SNP x pravastatin interaction) (rs2052428 allele C, DOM model, Imputed): 0.5903
- OR (SNP x pravastatin interaction) (rs2053230 allele C, ADD model, Imputed): 0.5414
- OR (SNP x pravastatin interaction) (rs2062448 allele T, DOM model, Imputed): 0.5462
- OR (SNP x pravastatin interaction) (rs2063420 allele C, REC model, Imputed): 1.755
- OR (SNP x pravastatin interaction) (rs2063591 allele C, ADD model, Imputed): 0.7519
- OR (SNP x pravastatin interaction) (rs2063591 allele C, DOM model, Imputed): 0.6237
- OR (SNP x pravastatin interaction) (rs2095586 allele A, DOM model, Imputed): 1.655
- OR (SNP x pravastatin interaction) (rs2095606 allele A, DOM model, Imputed): 0.5466
- OR (SNP x pravastatin interaction) (rs2102374 allele A, ADD model, Imputed): 0.6269
- OR (SNP x pravastatin interaction) (rs2102374 allele A, DOM model, Imputed): 0.5989
- OR (SNP x pravastatin interaction) (rs2108426 allele C, DOM model, Imputed): 0.6626
- OR (SNP x pravastatin interaction) (rs2110664 allele A, DOM model, Imputed): 1.429
